Laboratory results as given in ChEMBL document CHEMBL5465560, “Selectivity Literature for EUbOPEN Chemogenomic Library” (2024).
One block for each compound: values may come before it.

Tests used:
[1] = molecular target: Epithelial discoidin domain-containing receptor 1 (Homo sapiens) (UniProt Q08345); assay: Selectivity interaction (Kinase panel (Reaction Biology)) EUB0001464a DDR1; details: at 1 µM
[2] = molecular target: Mitogen-activated protein kinase kinase kinase kinase 5 (Homo sapiens) (UniProt Q9Y4K4); assay: Selectivity interaction (Kinase panel (Reaction Biology)) EUB0001464a MAP4K5; details: at 1 µM
[3] = molecular target: T1, 5-hydroxytryptamine receptor 2B (Homo sapiens, UniProt P41595); assay: Selectivity interaction (GPCR panel (PDSP screen)) EUB0001576a HTR2B; details: at 10 µM
[4] = molecular target: Sodium-dependent dopamine transporter (Homo sapiens, UniProt Q01959); assay: Selectivity interaction (GPCR panel (PDSP screen)) EUB0001576a SLC6A3; details: at 10 µM
[5] = molecular target: Sigma intracellular receptor 2 (Homo sapiens) (UniProt Q5BJF2); assay: Selectivity interaction (GPCR panel (PDSP screen)) EUB0001576a TMEM97; details: at 10 µM
[6] = molecular target: Serine/threonine-protein kinase 24 (Homo sapiens) (UniProt Q9Y6E0); assay: Selectivity interaction (Kinase panel (DSF assay)) EUB0001479a STK24
[7] = molecular target: Serine/threonine-protein kinase PAK 1 (Homo sapiens) (UniProt Q13153); assay: Selectivity interaction (Kinase panel (DSF assayt)) EUB0001479a PAK1
[8] = molecular target: T2, Serine/threonine-protein kinase 26 (Homo sapiens, UniProt Q9P289); assay: Selectivity interaction (Kinase panel (DSF assay)) EUB0001479a STK26
[9] = molecular target: 5-hydroxytryptamine receptor 4 (Homo sapiens) (UniProt Q13639); assay: Selectivity interaction (CEREB panel (panel of receptors, transporters, ion channels, and other enzymes)) EUB0001119a HTR4; details: at 10 µM
[10] = molecular target: T3, 5-hydroxytryptamine receptor 1A (Homo sapiens) (UniProt P08908); assay: Selectivity interaction (CEREB panel (panel of receptors, transporters, ion channels, and other enzymes)) EUB0001119a HTR1A; details: at 10 µM
T3 sequence (whole entry): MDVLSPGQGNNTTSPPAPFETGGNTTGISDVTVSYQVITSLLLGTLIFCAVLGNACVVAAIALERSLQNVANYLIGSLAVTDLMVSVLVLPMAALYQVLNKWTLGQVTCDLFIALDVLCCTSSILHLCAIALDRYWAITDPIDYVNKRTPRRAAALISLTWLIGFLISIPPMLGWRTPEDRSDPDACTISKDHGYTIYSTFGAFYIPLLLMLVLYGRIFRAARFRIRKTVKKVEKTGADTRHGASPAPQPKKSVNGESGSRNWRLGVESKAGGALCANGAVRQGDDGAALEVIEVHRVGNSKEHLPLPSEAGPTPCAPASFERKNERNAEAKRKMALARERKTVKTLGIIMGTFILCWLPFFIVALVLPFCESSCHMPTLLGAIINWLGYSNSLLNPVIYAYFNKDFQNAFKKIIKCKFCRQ

[11] = molecular target: 5-hydroxytryptamine receptor 1B (Homo sapiens) (UniProt P28222); assay: Selectivity interaction (CEREB panel (panel of receptors, transporters, ion channels, and other enzymes)) EUB0001119a HTR1B; details: at 10 µM
[12] = molecular target: 5-hydroxytryptamine receptor 2A (Homo sapiens, UniProt P28223); assay: Selectivity interaction (CEREB panel (panel of receptors, transporters, ion channels, and other enzymes)) EUB0001119a HTR2A; details: at 10 µM
[13] = molecular target: T1, 5-hydroxytryptamine receptor 2B; assay: Selectivity interaction (CEREB panel (panel of receptors, transporters, ion channels, and other enzymes)) EUB0001119a HTR2B; details: at 10 µM
[14] = molecular target: Mitogen-activated protein kinase kinase kinase kinase 5 (Homo sapiens) (UniProt Q9Y4K4); assay: Selectivity interaction (Kinase panel (Invitrogen)) EUB0001119a MAP4K5; details: at 100 nM
[15] = molecular target: Tyrosine-protein kinase Lck (Homo sapiens, UniProt P06239); assay: Selectivity interaction (Kinase panel (Invitrogen)) EUB0001119a LCK; details: at 100 nM
[16] = molecular target: Serine/threonine-protein kinase 24 (Homo sapiens) (UniProt Q9Y6E0); assay: Selectivity interaction (Kinase panel (Invitrogen)) EUB0001119a STK24; details: at 100 nM
[17] = molecular target: Serine/threonine-protein kinase PAK 3 (Homo sapiens) (UniProt O75914); assay: Selectivity interaction (Kinase panel (Invitrogen)) EUB0001119a PAK3; details: at 100 nM
[18] = molecular target: Sodium channel protein type 2 subunit alpha (Homo sapiens) (UniProt Q99250); assay: Selectivity interaction (CEREB panel (panel of receptors, transporters, ion channels, and other enzymes)) EUB0001119a SCN2A; details: at 10 µM
[19] = molecular target: Serine/threonine-protein kinase SIK1 (Homo sapiens) (UniProt P57059); assay: Selectivity interaction (Kinase panel (Invitrogen)) EUB0001119a SIK1; details: at 100 nM
[20] = molecular target: Serine/threonine-protein kinase PAK 2 (Homo sapiens) (UniProt Q13177); details: at 100 nM
[21] = molecular target: T2, Serine/threonine-protein kinase 26; details: at 100 nM
[22] = molecular target: Calcium/calmodulin-dependent protein kinase type II subunit gamma (Homo sapiens) (UniProt Q13555); assay: Selectivity interaction (KinaseProfile service (Milipore)) EUB0001485aCl CAMK2G; details: at 1 µM
[23] = molecular target: Calcium/calmodulin-dependent protein kinase type II subunit delta (Homo sapiens) (UniProt Q13557); details: at 1 µM
[24] = molecular target: MAP kinase-interacting serine/threonine-protein kinase 2 (Homo sapiens, UniProt Q9HBH9); details: at 1 µM
[25] = molecular target: Bone morphogenetic protein receptor type-1B (Homo sapiens, UniProt O00238); assay: Selectivity interaction (Kinase panel (Reaction Biology)) EUB0001184b BMPR1B; details: at 1 µM
[26] = molecular target: Mitogen-activated protein kinase kinase kinase kinase 4 (Homo sapiens, UniProt O95819); assay: Selectivity interaction (Kinase panel (Reaction Biology)) EUB0001184b MAP4K4; details: at 1 µM
[27] = molecular target: TRAF2 and NCK-interacting protein kinase (Homo sapiens) (UniProt Q9UKE5); assay: Selectivity interaction (Kinase panel (Reaction Biology)) EUB0001184b TNIK; details: at 1 µM
Chain of TRAF2 and NCK-interacting protein kinase (Homo sapiens) (Q9UKE5 whole entry, looked up): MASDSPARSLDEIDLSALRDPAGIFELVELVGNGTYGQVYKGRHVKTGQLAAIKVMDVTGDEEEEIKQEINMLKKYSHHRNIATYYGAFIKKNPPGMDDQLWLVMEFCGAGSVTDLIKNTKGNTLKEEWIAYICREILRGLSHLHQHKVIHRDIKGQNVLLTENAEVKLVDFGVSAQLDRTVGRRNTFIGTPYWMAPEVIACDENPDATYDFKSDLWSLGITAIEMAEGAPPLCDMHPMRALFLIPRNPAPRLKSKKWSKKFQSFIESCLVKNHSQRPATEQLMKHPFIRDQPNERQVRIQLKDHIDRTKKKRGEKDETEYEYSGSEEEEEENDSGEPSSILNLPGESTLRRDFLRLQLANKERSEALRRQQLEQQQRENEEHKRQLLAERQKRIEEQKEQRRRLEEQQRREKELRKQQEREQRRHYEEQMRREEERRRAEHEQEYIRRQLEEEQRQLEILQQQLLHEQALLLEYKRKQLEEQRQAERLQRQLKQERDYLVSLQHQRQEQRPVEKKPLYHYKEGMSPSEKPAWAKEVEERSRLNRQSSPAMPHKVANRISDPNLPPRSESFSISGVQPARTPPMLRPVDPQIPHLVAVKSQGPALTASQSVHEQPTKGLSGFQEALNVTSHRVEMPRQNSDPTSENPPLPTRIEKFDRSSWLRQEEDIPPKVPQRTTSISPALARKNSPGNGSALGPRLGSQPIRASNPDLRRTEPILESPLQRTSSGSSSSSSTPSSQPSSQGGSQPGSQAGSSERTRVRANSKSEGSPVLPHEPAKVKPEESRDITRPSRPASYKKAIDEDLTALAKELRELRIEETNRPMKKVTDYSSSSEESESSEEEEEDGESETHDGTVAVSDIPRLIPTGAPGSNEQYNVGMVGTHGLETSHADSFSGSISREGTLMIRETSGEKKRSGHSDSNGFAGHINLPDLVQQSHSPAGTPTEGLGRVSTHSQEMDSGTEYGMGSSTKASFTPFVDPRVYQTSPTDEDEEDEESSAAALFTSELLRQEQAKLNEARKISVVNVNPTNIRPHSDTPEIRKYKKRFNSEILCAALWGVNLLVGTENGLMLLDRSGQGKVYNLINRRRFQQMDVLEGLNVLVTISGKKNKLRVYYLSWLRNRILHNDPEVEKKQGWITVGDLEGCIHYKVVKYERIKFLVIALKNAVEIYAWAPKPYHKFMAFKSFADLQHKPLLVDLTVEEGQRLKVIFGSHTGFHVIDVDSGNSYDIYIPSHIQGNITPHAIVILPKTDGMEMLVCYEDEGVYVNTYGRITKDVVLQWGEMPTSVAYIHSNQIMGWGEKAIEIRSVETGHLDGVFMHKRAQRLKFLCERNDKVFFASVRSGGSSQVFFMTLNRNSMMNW

Chain of Mitogen-activated protein kinase kinase kinase kinase 5 (Homo sapiens) (Q9Y4K4 whole entry, looked up): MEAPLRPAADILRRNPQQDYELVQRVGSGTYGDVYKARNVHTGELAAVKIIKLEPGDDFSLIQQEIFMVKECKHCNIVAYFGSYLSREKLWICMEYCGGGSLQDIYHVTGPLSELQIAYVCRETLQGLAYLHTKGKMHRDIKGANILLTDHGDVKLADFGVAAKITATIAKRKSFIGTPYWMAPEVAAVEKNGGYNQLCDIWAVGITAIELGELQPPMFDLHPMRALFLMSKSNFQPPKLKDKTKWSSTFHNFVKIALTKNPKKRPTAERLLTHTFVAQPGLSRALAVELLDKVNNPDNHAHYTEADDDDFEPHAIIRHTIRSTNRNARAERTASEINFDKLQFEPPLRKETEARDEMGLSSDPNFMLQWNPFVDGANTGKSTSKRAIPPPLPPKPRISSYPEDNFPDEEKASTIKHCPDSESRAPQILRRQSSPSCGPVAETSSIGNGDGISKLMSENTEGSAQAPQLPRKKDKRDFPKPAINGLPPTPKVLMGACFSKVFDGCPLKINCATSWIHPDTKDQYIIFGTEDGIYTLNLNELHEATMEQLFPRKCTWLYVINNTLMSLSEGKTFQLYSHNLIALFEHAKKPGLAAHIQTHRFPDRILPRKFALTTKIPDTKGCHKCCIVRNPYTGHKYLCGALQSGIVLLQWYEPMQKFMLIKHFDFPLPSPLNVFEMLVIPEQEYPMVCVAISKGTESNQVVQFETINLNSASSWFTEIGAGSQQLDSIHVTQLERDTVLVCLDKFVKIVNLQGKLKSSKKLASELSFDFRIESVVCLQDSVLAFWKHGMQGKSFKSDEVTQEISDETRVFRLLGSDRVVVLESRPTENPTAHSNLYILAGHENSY
T1 sequence (P41595 whole entry): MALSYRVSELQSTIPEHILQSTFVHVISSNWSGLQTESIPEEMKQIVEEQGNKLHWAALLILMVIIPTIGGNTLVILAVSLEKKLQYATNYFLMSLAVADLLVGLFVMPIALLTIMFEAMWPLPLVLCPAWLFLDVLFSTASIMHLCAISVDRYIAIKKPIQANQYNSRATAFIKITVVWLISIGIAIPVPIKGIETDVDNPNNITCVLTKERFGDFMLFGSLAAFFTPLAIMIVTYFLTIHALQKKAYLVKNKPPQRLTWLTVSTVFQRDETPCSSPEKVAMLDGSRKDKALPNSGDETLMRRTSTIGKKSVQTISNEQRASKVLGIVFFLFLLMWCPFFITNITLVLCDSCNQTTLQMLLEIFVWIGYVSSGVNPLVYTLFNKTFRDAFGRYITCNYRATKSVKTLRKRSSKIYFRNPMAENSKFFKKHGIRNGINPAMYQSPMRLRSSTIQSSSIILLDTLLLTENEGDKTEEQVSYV
Chain of Serine/threonine-protein kinase 24 (Homo sapiens) (Q9Y6E0 whole entry, looked up): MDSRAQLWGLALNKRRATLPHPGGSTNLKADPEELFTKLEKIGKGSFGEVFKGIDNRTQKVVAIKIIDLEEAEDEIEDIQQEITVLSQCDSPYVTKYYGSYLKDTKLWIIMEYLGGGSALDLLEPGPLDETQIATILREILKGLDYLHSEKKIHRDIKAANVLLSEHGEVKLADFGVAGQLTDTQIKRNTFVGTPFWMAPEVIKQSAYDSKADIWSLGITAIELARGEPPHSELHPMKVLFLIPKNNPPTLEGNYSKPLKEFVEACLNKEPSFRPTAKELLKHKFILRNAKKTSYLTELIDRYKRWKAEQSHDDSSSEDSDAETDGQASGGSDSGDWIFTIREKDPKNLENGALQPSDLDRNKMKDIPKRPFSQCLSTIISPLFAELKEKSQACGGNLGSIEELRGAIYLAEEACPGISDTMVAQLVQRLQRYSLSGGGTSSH
T2 sequence (Q9P289 2-416 limits assumed): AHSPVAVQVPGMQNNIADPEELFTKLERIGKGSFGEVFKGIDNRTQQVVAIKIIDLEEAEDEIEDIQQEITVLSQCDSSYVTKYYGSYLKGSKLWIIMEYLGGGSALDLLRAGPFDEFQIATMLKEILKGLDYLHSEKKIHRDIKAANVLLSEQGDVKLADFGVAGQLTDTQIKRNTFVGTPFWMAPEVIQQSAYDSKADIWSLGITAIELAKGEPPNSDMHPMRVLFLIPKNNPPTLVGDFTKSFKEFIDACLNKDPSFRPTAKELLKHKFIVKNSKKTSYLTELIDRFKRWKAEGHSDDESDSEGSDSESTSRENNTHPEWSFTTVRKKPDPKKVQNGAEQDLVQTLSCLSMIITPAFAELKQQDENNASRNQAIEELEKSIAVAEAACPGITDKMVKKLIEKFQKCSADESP
Chain of 5-hydroxytryptamine receptor 1B (Homo sapiens) (P28222 whole entry): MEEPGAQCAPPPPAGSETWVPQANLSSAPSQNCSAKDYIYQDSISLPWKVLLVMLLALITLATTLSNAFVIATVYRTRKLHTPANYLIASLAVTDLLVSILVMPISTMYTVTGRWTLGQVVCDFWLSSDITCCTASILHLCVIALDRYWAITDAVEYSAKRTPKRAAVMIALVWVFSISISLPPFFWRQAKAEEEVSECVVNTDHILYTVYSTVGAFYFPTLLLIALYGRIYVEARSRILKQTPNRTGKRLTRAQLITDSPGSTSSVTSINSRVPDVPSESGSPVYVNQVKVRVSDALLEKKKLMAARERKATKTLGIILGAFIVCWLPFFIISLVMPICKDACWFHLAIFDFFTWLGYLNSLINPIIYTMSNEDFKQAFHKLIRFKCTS
Chain of Bone morphogenetic protein receptor type-1B (O00238 whole entry): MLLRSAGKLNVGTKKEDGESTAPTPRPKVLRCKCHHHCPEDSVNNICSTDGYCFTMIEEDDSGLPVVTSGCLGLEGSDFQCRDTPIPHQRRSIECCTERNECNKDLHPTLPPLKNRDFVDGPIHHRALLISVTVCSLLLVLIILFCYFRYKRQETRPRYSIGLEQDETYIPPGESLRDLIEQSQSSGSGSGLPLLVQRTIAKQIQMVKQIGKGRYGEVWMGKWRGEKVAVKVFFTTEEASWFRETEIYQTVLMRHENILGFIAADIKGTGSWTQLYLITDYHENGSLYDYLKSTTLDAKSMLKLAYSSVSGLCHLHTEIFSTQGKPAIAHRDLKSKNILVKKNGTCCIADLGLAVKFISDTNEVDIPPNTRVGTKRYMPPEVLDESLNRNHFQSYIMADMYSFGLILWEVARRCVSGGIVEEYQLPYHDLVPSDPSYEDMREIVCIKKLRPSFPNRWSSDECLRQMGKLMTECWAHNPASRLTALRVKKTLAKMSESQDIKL
Chain of Calcium/calmodulin-dependent protein kinase type II subunit delta (Homo sapiens) (Q13557 whole entry): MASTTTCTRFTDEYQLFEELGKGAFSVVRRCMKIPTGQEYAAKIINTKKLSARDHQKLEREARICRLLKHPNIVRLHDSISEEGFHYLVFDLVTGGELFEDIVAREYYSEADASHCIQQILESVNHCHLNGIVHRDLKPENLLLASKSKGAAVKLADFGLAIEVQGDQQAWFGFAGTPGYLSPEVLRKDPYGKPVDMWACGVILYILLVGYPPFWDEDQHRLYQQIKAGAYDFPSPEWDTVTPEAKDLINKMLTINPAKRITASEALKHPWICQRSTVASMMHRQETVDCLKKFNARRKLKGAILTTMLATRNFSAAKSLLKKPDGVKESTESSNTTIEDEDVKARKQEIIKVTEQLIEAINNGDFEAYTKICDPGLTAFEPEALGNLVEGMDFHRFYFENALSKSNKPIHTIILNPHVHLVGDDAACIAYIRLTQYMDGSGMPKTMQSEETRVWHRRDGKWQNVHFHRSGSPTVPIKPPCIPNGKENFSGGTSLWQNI

- % of inhibition [1]: 28%
- % of inhibition [2]: 28%
Compound: c1ccc2c(-c3coc4cc(-c5ccc(N6CCNCC6)cc5)cnc34)ccnc2c1

- % of inhibition [25]: 27%
- % of inhibition [26]: 30%
- % of inhibition [27]: 4.92%
Compound: COc1cc(-c2cncc(-c3ccc(N4CCN(C(C)C)CC4)cc3)c2C)cc(F)c1C(N)=O

More lines, now with the values behind:

Compound: CN(C)C(=O)c1sc2nc(N3CCC(S(C)(=O)=O)CC3)cc(C(F)(F)F)c2c1N
- % of inhibition [3]: 47.5%
- % of inhibition [4]: 80.5%
- % of inhibition [5]: 70.6%

Compound: CN(C)c1ncc2cc(-c3ccc(-c4ncccc4F)cc3Cl)c(=O)n(C[C@H]3OC[C@H](N)CO3)c2n1
- dTM [6]: 0.2 K
- dTM [7]: 0.9 K
- dTM [8]: 0.8 K

Compound: CNc1ncc2cc(-c3ccc(-c4cccc(C)n4)cc3Cl)c(=O)n(C[C@H]3OC[C@H](N)CO3)c2n1
- % of inhibition [9]: 75%
- % of inhibition [10]: 56%
- % of inhibition [11]: 84%
- % of inhibition [12]: 75%
- % of inhibition [13]: 92%
- % of inhibition [14]: 99.8%
- % of inhibition [15]: 75.7%
- % of inhibition [16]: 80.6%
- % of inhibition [17]: 91.5%
- % of inhibition [18]: 75%
- % of inhibition [19]: 95.3%
- % of inhibition [20]: 101%
- % of inhibition [21]: 89.7%

Compound: COc1cc(-c2cn[nH]c2)ccc1C(=O)Nc1ccc2c(c1)CCNCC2
- % of control [22]: 59%
- % of control [23]: 60%
- % of control [24]: 55%
